Measured values taken from PubChem BioAssay (NCI).
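Five concentrations, 48 hours, 96-well plates. Here, GI50 denotes the concentration required for 50% inhibition of growth. TGI: concentration producing complete growth inhibition.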

Assays:
Assay in all cases: NCI-60 cell line screen, 48 h
RXF 393 renal = test system: RXF 393 renal
TK-10 renal = test system: TK-10 renal
UO-31 renal = test system: UO-31 renal
SNB-75 CNS = test system: SNB-75 CNS
NCI-H522 lung = test system: NCI-H522 lung
SR leukemia = test system: SR leukemia
OVCAR-5 ovarian = test system: OVCAR-5 ovarian
SF-539 CNS = test system: SF-539 CNS
SK-MEL-5 melanoma = test system: SK-MEL-5 melanoma
SK-MEL-2 melanoma = test system: SK-MEL-2 melanoma

Row | Compound | GI50 (RXF 393 renal) | TGI (RXF 393 renal) | GI50 (TK-10 renal) | TGI (TK-10 renal) | GI50 (UO-31 renal) | TGI (UO-31 renal) | GI50 (SNB-75 CNS) | TGI (SNB-75 CNS) | GI50 (NCI-H522 lung) | TGI (NCI-H522 lung) | GI50 (SR leukemia) | TGI (SR leukemia) | GI50 (OVCAR-5 ovarian) | TGI (OVCAR-5 ovarian) | GI50 (SF-539 CNS) | TGI (SF-539 CNS) | GI50 (SK-MEL-5 melanoma) | TGI (SK-MEL-5 melanoma) | GI50 (SK-MEL-2 melanoma) | TGI (SK-MEL-2 melanoma)
1 | COc1ccc(/C(C#N)=C/c2ccccc2OC)cc1 | 5.4 µM | 27.4 µM | 12.4 µM | > 100 µM | 17 µM | > 100 µM | 4.07 µM | 32.8 µM | 4.85 µM | 32.3 µM | 2.95 µM | 15.1 µM | 55.4 µM | > 100 µM | 20.5 µM | > 100 µM | 9.25 µM | > 100 µM | 4.68 µM | 32.9 µM
2 | COc1cc(OC)c2c(c1)C(=O)C(CC(C)O)=CC2=O (centres undefined) |  | 25.3 µM |  | 34.1 µM |  | 29.9 µM |  | 41 µM |  | 30.9 µM |  | 7.44 µM |  | 32.3 µM |  | 32.5 µM |  | 28 µM |  | 36.2 µM
3 | CCCCCCCCCCCC(=O)OCC1OC(n2cc(F)c(=O)[nH]c2=O)C(NC(=O)OCc2ccccc2)C(OC(=O)CCCCCCCCCCC)C1O (centres undefined) |  | > 100 µM |  | > 100 µM |  | > 100 µM |  | > 100 µM |  | > 100 µM |  | > 100 µM |  | > 100 µM |  | > 100 µM |  | > 100 µM |  | > 100 µM
4 | CN1CCC(n2cnc(-c3ccc(F)cc3)c2-c2ccnc(NCCO)n2)CC1 | > 25 µM | > 25 µM | > 20.3 µM | > 25 µM | 13.6 µM | > 25 µM | 12.3 µM | > 25 µM | > 17.7 µM | > 25 µM | 23.7 µM | > 25 µM | > 25 µM | > 25 µM | > 25 µM | > 25 µM | 17.2 µM | > 25 µM | > 25 µM | > 25 µM
5 | C=CC/C=C/Cc1csc(C(C)(C)C(O)C/C=C/C(=C)CCNC(=O)OC)n1 (centres undefined) |  | > 100 µM |  | > 100 µM |  | > 100 µM |  | > 83.8 µM |  | > 100 µM |  | > 100 µM |  | > 100 µM |  | > 100 µM |  | > 60.5 µM |  | > 100 µM
6 | COc1ccc(-c2nc3sc4c(c3c(=O)[nH]2)CCCCCC4)cc1 | 1.62 µM | 10.4 µM | > 33.2 µM | > 33.2 µM | > 33.2 µM | > 33.2 µM | 2.2 µM | 16.5 µM | 2.55 µM | > 33.2 µM | 0.717 µM | > 33.2 µM | > 33.2 µM | > 33.2 µM | 2.56 µM | > 33.2 µM | 2.52 µM | > 33.2 µM | 2.83 µM | 23.5 µM
7 | COC(=O)[C@@]1(C)CC[C@]2(C)CC[C@]3(C)C4=CC=C5C(=CC(=O)C(O)=C5C)[C@]4(C)[C@@H](O)C[C@@]3(C)[C@@H]2C1 | 11.3 µM | 22.9 µM | 4.77 µM | 15.7 µM | 5.8 µM | 16.2 µM | 11.6 µM | 26 µM | 8.39 µM | 20 µM | 2.69 µM | 19 µM | 12.9 µM | 24.5 µM | 15.7 µM | 28.8 µM | 16.5 µM | 32.6 µM | 11.2 µM | 23.2 µM
8 | CC(C)c1cc(-c2n[nH]c(=O)n2-c2ccc3c(ccn3C)c2)c(O)cc1O | < 0.0304 µM | 21.5 µM | < 0.0271 µM | 37 µM | < 0.0218 µM | > 65.2 µM | 1.58 µM | 97.7 µM | < 0.0205 µM | 17.1 µM | < 0.01 µM | 35 µM | 0.147 µM | > 48.4 µM | < 0.0279 µM | 21.8 µM | < 0.0207 µM | 13.9 µM |  | 25.7 µM
9 | COc1cc(C2CC(c3ccc4c(c3)OCO4)=NN2C=O)cc(OC)c1OC (centres undefined) | 4.05 µM | 22.2 µM | > 29.9 µM | > 100 µM | 3.81 µM | > 100 µM | 1.13 µM | 5.43 µM | 1.22 µM | > 27.6 µM | 0.52 µM | > 100 µM | 12.2 µM | > 100 µM | 2.06 µM | 13 µM | 2.39 µM | 8.11 µM | 9.46 µM | > 100 µM
10 | OC(c1cc(-c2ccccc2)nc2ccc(Cl)cc12)C1CCCCN1 (centres undefined) | 2.01 µM | 3.84 µM | 4.06 µM | 16.2 µM | 1.73 µM | 4.19 µM | 1.83 µM | 5.74 µM | 2.11 µM | 4.53 µM | 1.88 µM | 5.44 µM | 1.84 µM | 4.3 µM | 1.84 µM | 3.52 µM | 1.91 µM | 3.47 µM | 2.45 µM | 5.02 µM
11 | CCOC(=O)c1c2c(n3ccccc13)C(=O)c1ccccc1C2=O |  | > 100 µM |  | > 100 µM |  | > 100 µM |  | 74.6 µM |  | > 100 µM |  | > 100 µM |  | > 100 µM |  | > 100 µM |  | > 100 µM |  | > 100 µM
12 | Cc1ccc(NC(=O)C(=O)C(C#N)c2ccccc2C)cc1C (centres undefined) |  | > 100 µM |  | > 100 µM |  | > 100 µM |  | > 100 µM |  | > 100 µM |  | > 100 µM |  | > 100 µM |  | > 100 µM |  | > 100 µM |  | > 100 µM
13 | COC(=O)[C@H](C[C@H](Cc1ccccc1)NC(=O)c1csc([C@@H](C[C@H](C(C)C)N(C)C(=O)[C@@H](NC(=O)[C@H]2CCCCN2C)C(C)C)OC(C)=O)n1)NC(=O)OCc1ccccc1 | < 0.0009 µM | > 9 µM | 0.11 µM | > 9 µM | 0.0111 µM | > 9 µM | < 0.0009 µM | > 9 µM | < 0.0009 µM | 0.0525 µM | < 0.0009 µM | > 4.29 µM | 0.0046 µM | > 9 µM | < 0.0009 µM | 0.00367 µM | < 0.0009 µM | 0.0182 µM | < 0.0009 µM | 4.53 µM
